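Step 1: Grow cells in 96-well plates. Step 2: Expose to compound for 48 hours at 5 concentrations. Step 3: Interpolate endpoints linearly; if unreached, use highest concentration. GI50 = concentration required for 50% inhibition of growth.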 Activity calls are given as the source filed them. Rule as the data show it: active = GI50 up to about 1.1 µM and inactive = higher.
Key:
Experiment in all cases: NCI-60 cell line screen, 48 h
HCT-116 = system: HCT-116
SNB-19 = system: SNB-19
NCI/ADR-RES = system: NCI/ADR-RES
OVCAR-3 = system: OVCAR-3
BT-549 = system: BT-549
CCRF-CEM = system: CCRF-CEM
UACC-62 = system: UACC-62
M14 = system: M14
PC-3 = system: PC-3
SK-MEL-2 = system: SK-MEL-2
K562 = system: K562
NCI-H460 = system: NCI-H460
RPMI-8226 = system: RPMI-8226
Hs-578T = system: Hs-578T
786-0 = system: 786-0
NCI-H23 = system: NCI-H23
MDA-MB-435 = system: MDA-MB-435
SW-620 = system: SW-620
IGROV-1 = system: IGROV-1
ACHN = system: ACHN
SF-539 = system: SF-539
UACC-257 = system: UACC-257
MCF7 = system: MCF7
HOP-92 = system: HOP-92
COLO 205 = system: COLO 205
SR = system: SR
NCI-H522 = system: NCI-H522
A498 = system: A498
SK-MEL-5 = system: SK-MEL-5
SF-268 = system: SF-268
LOX IMVI = system: LOX IMVI
HT-29 = system: HT-29
MDA-N = system: MDA-N
T47D = system: T47D
SNB-75 = system: SNB-75
SK-MEL-28 = system: SK-MEL-28
SK-OV-3 = system: SK-OV-3
HOP-62 = system: HOP-62
HL-60 = system: HL-60
KM12 = system: KM12
HCT-15 = system: HCT-15
UO-31 = system: UO-31
RXF 393 = system: RXF 393
Malme-3M = system: Malme-3M
CAKI-1 = system: CAKI-1
SN12C = system: SN12C
EKVX = system: EKVX
MOLT-4 = system: MOLT-4
OVCAR-8 = system: OVCAR-8
OVCAR-5 = system: OVCAR-5
DU-145 = system: DU-145
HCC 2998 = system: HCC 2998
OVCAR-4 = system: OVCAR-4
TK-10 = system: TK-10
MDA-MB-231 = system: MDA-MB-231
A549 = system: A549
U-251 = system: U-251
SF-295 = system: SF-295

**Q.** How did the GI50 (HCT-116) turn out when `CCCSc1ccc2[nH]c(N3C(=O)/C(=C/c4ccc(O)c(OC)c4)N=C3c3ccccc3)cc2c1` was run?
**A.** 7.59 µM (inactive)

**Q.** And the GI50 (SNB-19)?
**A.** 3.57 µM (inactive)

**Q.** And the GI50 (NCI/ADR-RES)?
**A.** 3.1 µM (inactive)

**Q.** What about the GI50 (OVCAR-3) of the same compound?
**A.** 6.7 µM (inactive)

**Q.** And the GI50 (BT-549)?
**A.** 9.57 µM (inactive)

**Q.** And the GI50 (CCRF-CEM)?
**A.** 7.82 µM (inactive)

**Q.** What about the GI50 (UACC-62) of the same compound?
**A.** 3.07 µM (inactive)

**Q.** What about the GI50 (M14) of the same compound?
**A.** 3.58 µM (inactive)

**Q.** And the GI50 (PC-3)?
**A.** 13.2 µM (inactive)

**Q.** What about the GI50 (SK-MEL-2) of the same compound?
**A.** 0.0775 µM (active)

**Q.** And the GI50 (K562)?
**A.** 3.68 µM (inactive)

**Q.** What about the GI50 (NCI-H460) of the same compound?
**A.** 0.0422 µM (active)

**Q.** What about the GI50 (RPMI-8226) of the same compound?
**A.** 3.53 µM (inactive)

**Q.** And the GI50 (Hs-578T)?
**A.** 0.0697 µM (active)

**Q.** And the GI50 (786-0)?
**A.** 16.3 µM (inactive)

**Q.** And the GI50 (NCI-H23)?
**A.** 16.7 µM (inactive)

**Q.** What about the GI50 (MDA-MB-435) of the same compound?
**A.** 2.69 µM (inactive)

**Q.** And the GI50 (SW-620)?
**A.** 5.61 µM (inactive)

**Q.** And the GI50 (IGROV-1)?
**A.** 4.2 µM (inactive)

**Q.** And the GI50 (ACHN)?
**A.** 25.2 µM (inactive)

**Q.** And the GI50 (SF-539)?
**A.** 4.88 µM (inactive)

**Q.** And the GI50 (UACC-257)?
**A.** 4.56 µM (inactive)

**Q.** What about the GI50 (MCF7) of the same compound?
**A.** 2.94 µM (inactive)

**Q.** And the GI50 (HOP-92)?
**A.** 22 µM (inactive)

**Q.** What about the GI50 (COLO 205) of the same compound?
**A.** 4.27 µM (inactive)

**Q.** And the GI50 (SR)?
**A.** 1.34 µM (inactive)

**Q.** What about the GI50 (NCI-H522) of the same compound?
**A.** 4.07 µM (inactive)

**Q.** And the GI50 (A498)?
**A.** 6.35 µM (inactive)

**Q.** What about the GI50 (SK-MEL-5) of the same compound?
**A.** 4.51 µM (inactive)

**Q.** What about the GI50 (SF-268) of the same compound?
**A.** 9.16 µM (inactive)

**Q.** And the GI50 (LOX IMVI)?
**A.** 7.14 µM (inactive)

**Q.** And the GI50 (HT-29)?
**A.** 3.02 µM (inactive)

**Q.** And the GI50 (MDA-N)?
**A.** 2.32 µM (inactive)

**Q.** What about the GI50 (T47D) of the same compound?
**A.** 22.3 µM (inactive)

**Q.** What about the GI50 (SNB-75) of the same compound?
**A.** 26.2 µM (inactive)

**Q.** What about the GI50 (SK-MEL-28) of the same compound?
**A.** 17.2 µM (inactive)

**Q.** What about the GI50 (SK-OV-3) of the same compound?
**A.** 0.1 µM (active)

**Q.** What about the GI50 (HOP-62) of the same compound?
**A.** 0.0424 µM (active)

**Q.** What about the GI50 (HL-60) of the same compound?
**A.** 2.82 µM (inactive)

**Q.** What about the GI50 (KM12) of the same compound?
**A.** 0.0791 µM (active)

**Q.** And the GI50 (HCT-15)?
**A.** 4.43 µM

**Q.** What about the GI50 (UO-31) of the same compound?
**A.** 12.8 µM (inactive)

**Q.** What about the GI50 (RXF 393) of the same compound?
**A.** 18.8 µM (inactive)

**Q.** And the GI50 (Malme-3M)?
**A.** 2.98 µM (inactive)

**Q.** What about the GI50 (CAKI-1) of the same compound?
**A.** 14.7 µM (inactive)

**Q.** And the GI50 (SN12C)?
**A.** 4.18 µM (inactive)

**Q.** And the GI50 (EKVX)?
**A.** 14.5 µM (inactive)

**Q.** What about the GI50 (MOLT-4) of the same compound?
**A.** 4.23 µM (inactive)

**Q.** And the GI50 (OVCAR-8)?
**A.** 21.3 µM (inactive)

**Q.** What about the GI50 (OVCAR-5) of the same compound?
**A.** 4.07 µM (inactive)

**Q.** And the GI50 (DU-145)?
**A.** 25.8 µM (inactive)

**Q.** What about the GI50 (HCC 2998) of the same compound?
**A.** 2.8 µM (inactive)

**Q.** Which results are given for `COc1ccc(-c2nc(SCC(=O)NNC(=S)Nc3ccccc3)[nH]c2-c2ccc(OC)cc2)cc1`?
**A.** GI50 (HCT-116): 25.8 µM (inactive); GI50 (SNB-19): 21.8 µM (inactive); GI50 (NCI/ADR-RES): 74.5 µM (inactive); GI50 (OVCAR-3): 14.3 µM (inactive); GI50 (OVCAR-4): 33.5 µM (inactive); GI50 (BT-549): 24 µM (inactive); GI50 (CCRF-CEM): 22.7 µM (inactive); GI50 (UACC-62): 16.6 µM (inactive); GI50 (TK-10): 40.6 µM (inactive); GI50 (M14): 17.7 µM (inactive); GI50 (PC-3): 25.8 µM (inactive); GI50 (SK-MEL-2): 18.4 µM (inactive); GI50 (K562): 23.1 µM (inactive); GI50 (NCI-H460): 14.8 µM (inactive); GI50 (786-0): 23.7 µM (inactive); GI50 (NCI-H23): 21.4 µM (inactive); GI50 (MDA-MB-435): 18.2 µM (inactive); GI50 (SW-620): 26.9 µM (inactive); GI50 (IGROV-1): 33.8 µM (inactive); GI50 (MDA-MB-231): 27.2 µM (inactive); GI50 (ACHN): 24.5 µM (inactive); GI50 (SF-539): 15.7 µM (inactive); GI50 (UACC-257): 20.8 µM (inactive); GI50 (MCF7): 20.5 µM (inactive); GI50 (HOP-92): 20.8 µM (inactive); GI50 (COLO 205): 15.3 µM (inactive); GI50 (A549): 31.5 µM (inactive); GI50 (NCI-H522): 22.7 µM (inactive); GI50 (A498): 22.9 µM (inactive); GI50 (SK-MEL-5): 14.9 µM (inactive); GI50 (SF-268): 25.9 µM (inactive); GI50 (LOX IMVI): 19.6 µM (inactive); GI50 (HT-29): 35.2 µM (inactive); GI50 (MDA-N): 20.6 µM (inactive); GI50 (U-251): 17.5 µM (inactive); GI50 (T47D): 16.6 µM (inactive); GI50 (SNB-75): 24.9 µM (inactive); GI50 (SK-MEL-28): 24.3 µM (inactive); GI50 (SK-OV-3): 27.2 µM (inactive); GI50 (SF-295): 19.1 µM (inactive); GI50 (HOP-62): 18.6 µM (inactive); GI50 (HL-60): 4.63 µM (inactive); GI50 (KM12): 24.9 µM (inactive); GI50 (HCT-15): 22.2 µM; GI50 (UO-31): 45.9 µM (inactive); GI50 (RXF 393): 16.9 µM (inactive); GI50 (Malme-3M): 52.2 µM (inactive); GI50 (CAKI-1): 34.3 µM (inactive); GI50 (SN12C): 21.8 µM (inactive); GI50 (EKVX): 28.8 µM (inactive); GI50 (MOLT-4): 3.46 µM (inactive); GI50 (OVCAR-8): 39.9 µM (inactive); GI50 (OVCAR-5): 23.7 µM (inactive); GI50 (DU-145): 28.7 µM (inactive); GI50 (HCC 2998): 14 µM (inactive)
